Measured values as given in patent publication US7399744B2, “Methods for affecting body composition” (Amylin Pharmaceuticals, Inc., priority 2004, dated 2008).
Marks after values point to notes of the source that are not given here. Ends that are not written are not given here.

Experiments:
[1] = test system: insulin-stimulated glycogen synthesis in soleus muscle; experiment: Soleus muscle assay; format: cell-based; settings: rat soleus muscle, inhibition of glucose incorporation into glycogen
Method: Concentrations of peptide dissolved in carrier-free buffers are determined by quantitative amino acid analysis, as described therein. The ability of compounds to act as agonists in this assay is determined by measuring EC50 values. […] Similar results were obtained with other agonist compounds listed above.

[2] = Amylin or sibutramine by 28-day osmotic pump in high fat-fed rats (Example 1); format: in vivo, rat; settings: for Body Weight / Caloric Intake: amylin 300 μg/kg/day or sibutramine 3 mg/kg/day, s.c. 28-day osmotic pump, high fat-fed rats, vs high fat-fed controls
Method: (§1) Low fat-fed rats (11% kcal from fat, D12329, Research Diets) were also implanted with pumps delivering vehicle. Food intake and body weight measurements were obtained weekly.
Rats were sacrificed by cardiac puncture under anesthesia. Triglyceride levels were measured on a COBAS Mira plasma analyzer (Roche), and leptin and insulin were assayed according to Linco Research rat RIA kits. Body composition was measured by chemical analysis (Covance Laboratories, Madison, Wis.).
All data are represented as mean±SEM. Analysis of variance was used to test for group differences.
The rats were fattened for 10 weeks prior to drug treatment. The high fat-fed rats were designated as obesity-prone (top 50% of weight gainers) or obesity-resistant (bottom 50%) based on the amount of weight gained through week 7.
In this study, an obesity-prone/obesity-resistant difference in drug interaction was found for protein weight in amylin-treated rats, and thus body composition parameters were measured separately in obesity-prone and obesity-resistant animals in each drug group (FIGS. 2A and 2B).

[3] = Chronic amylin infusion vs pair-feeding in DIO Levin rats (Example 3); format: in vivo, rat; set-up: reduction in body weight relative to vehicle controls / Weight (g) / Ash (%): dose or concentration left out as unconfirmed
[4] = Three doses of amylin by osmotic pump in high fat-fed rats (Example 2); format: in vivo, rat; settings: for Body Weight / Caloric Intake: high fat-fed rats, vs high fat-fed controls
Source text: as §1

[5] = Amylin with prior or concurrent food restriction in retired female breeder rats (Example 4); format: in vivo, rat; settings: for % Change in fat / % Change in protein / Estimated Mean Weight change from treatment: amylin 100 μg/kg/day, retired female breeder rats, high fat diet
Source text: Retired female breeder rats were maintained on a high fat diet (40% fat) for 8 weeks. Prior to drug treatment, rats were either ad-lib fed or food restricted to 95% of their starting body weight.
Changes in body weight and body composition are summarized in the table below and depicted in FIGS. 13A-13P.

[6] = Amylin versus pramlintide in DIO Levin rats (Example 5); format: in vivo, rat; settings: 76 nmol/kg/day by osmotic mini-pump for 24 days
Method: 48 DIO Levin rats (an in-bred model of diet induced obesity) were used in this study. […] Food intake and body weight was measured daily. […] The pair-fed groups were only allowed to consume the daily intakes of their respective drug-treated groups. For body composition, rats were scanned in a rodent NMR before treatment and after sacrifice (at the end of the study), allowing for the ability to calculate changes in carcass fat and protein (e.g., lean tissue).

[7] = Chronic amylin infusion vs pair-feeding in lean HSD rats (Example 3); format: in vivo, rat
Method: Lean, male Harlan SPRAGLE DAWLEY® (HSD) (Harlan 7012) rats were maintained on “standard chow” (˜5% calories from fat).
Food intake and body weight were recorded daily (FIGS. 5, 6A, 6B, 7, 8A, and 8B).
On the final day of the experiment, rats were deeply anaesthetized and sacrificed by cardiac puncture. Plasma triglycerides, glucose, and cholesterol were measured on a COBAS Mira plasma Analyzer (Roche). Plasma leptin and insulin were measured using Linco Research kits. (See, FIGS. 9A-9F and 10A-10E.) Body composition was measured by chemical analysis (Covance Laboratories, Madison, Wis.). Fat pad weights of the epididymal, retroperitoneal, subcutaneous, and perirenal fat pads (all unilateral; analysis only done in DIO animals) were carefully dissected and weighed (FIGS. 12A-12D). In analyzing the tissue biochemistry, […] were powdered under liquid N2 and extracted in chloroform:methanol. 0.6% NaCl solution was then added and the tubes were vortexed, centrifuged, and the organic phase was transferred to glass scintillation vials and dried under a stream of N2. Dried lipids were resuspended and triglycerides were quantified by enzymatic assay (Pointe Scientific, Inc.). Tissue glycogen was measured by the amyloglucosidase method. (See FIGS. 11A-11D.)
All data are represented as mean±SEM. Analysis of variance (ANOVA) and Bonferroni post-hoc tests were used to test for group differences (SYSTAT® for Windows). A P-value <0.05 was considered significant. Graphs were generated using PRISM® 4 for Windows (Graphpad Software).

[8] = DIO rats, amylin 300 mg/kg/day, s.c. 28-day osmotic pump, body composition by chemical analysis
[9] = food access prior Ad-lib, during Ad-lib
[10] = food access prior Ad-lib, during Restricted
[11] = food access prior Restricted, during Ad-lib
[12] = food access prior Restricted, during Restricted
[13] = amylin 300 mg/kg/day, s.c. 28-day osmotic pump, body composition by chemical analysis

^2,37h-Amylin
EC50 [1]: 1.63 nM

amylin: Amylin synthesized by Amylin Pharmaceuticals, Inc. by solid-phase chemistry; species not stated (KCNTATCATQRLANFLVHSSNNFGAILSSTNVGSNTY; not fully specified (C-terminus, bridges); cysteine pairing not given here; UniProt P10997 34-70, looked up)
Body Weight ([2]; Week 1): 6%* | Caloric Intake ([2]; Week 1): 45%* | Body Weight ([2]; Week 2): 7%* | Caloric Intake ([2]; Week 2): 14%* | Body Weight ([2]; Week 3): 8%* | Caloric Intake ([2]; Week 3): 10%* | Body Weight ([2]; Week 4): 8%* | Caloric Intake ([2]; Week 4): 10%* | tolerance/resistance ([2]; administered by osmotic pump): did not induce tolerance/resistance | protein compared to the control group (vehicle only) ([2]; obesity-prone rats): increase | percent body fat ([3]; DIO rats): significant decrease | percent protein ([3]; DIO rats): significant preservation or gain | weight gain compared to vehicle rats ([3]; DIO rats): significant reduction | Fat (%) [3, 8]: 24.3 ± 6.5 % | Moisture (%) [3, 8]: 56.68 ± 4.4 % | Protein (%) [3, 8]: 18.09 ± 1.68 % | reduction in body weight relative to vehicle controls ([3]; DIO rats, osmotic pump): 12% | Ash (%) ([3]; DIO rats, s.c. 28-day osmotic pump, body composition by chemical analysis): 1.65 ± 0.34% | Weight (g) ([3]; DIO rats, s.c. 28-day osmotic pump, end of study): 548.94* g | muscle glycogen content ([3]; tissue biochemistry, amyloglucosidase method): significantly reduced | body weight gain ([4]; 30 μg/kg/day): reduction | Body Weight ([4]; 30 μg/kg/day amylin, Week 1): 5%* | Caloric Intake ([4]; 30 μg/kg/day amylin, Week 1): 32%* | Body Weight ([4]; 30 μg/kg/day amylin, Week 2): 7%* | Caloric Intake ([4]; 30 μg/kg/day amylin, Week 2): 17%* | Body Weight ([4]; 30 μg/kg/day amylin, Week 3): 7%* | Caloric Intake ([4]; 30 μg/kg/day amylin, Week 3): 10% | Body Weight ([4]; 30 μg/kg/day amylin, Week 4): 7%* | Caloric Intake ([4]; 30 μg/kg/day amylin, Week 4): 8% | Body Weight ([4]; 100 μg/kg/day amylin, Week 1): 10%* | Caloric Intake ([4]; 100 μg/kg/day amylin, Week 1): 45%* | Body Weight ([4]; 100 μg/kg/day amylin, Week 2): 10%* | Caloric Intake ([4]; 100 μg/kg/day amylin, Week 2): 19%* | Body Weight ([4]; 100 μg/kg/day amylin, Week 3): 9%* | Caloric Intake ([4]; 100 μg/kg/day amylin, Week 3): 4% | Body Weight ([4]; 100 μg/kg/day amylin, Week 4): 8%* | Caloric Intake ([4]; 100 μg/kg/day amylin, Week 4): 9% | Body Weight ([4]; 300 μg/kg/day amylin, Week 1): 7%* | Caloric Intake ([4]; 300 μg/kg/day amylin, Week 1): 41%* | Body Weight ([4]; 300 μg/kg/day amylin, Week 2): 8%* | Caloric Intake ([4]; 300 μg/kg/day amylin, Week 2): 15%* | Body Weight ([4]; 300 μg/kg/day amylin, Week 3): 10%* | Caloric Intake ([4]; 300 μg/kg/day amylin, Week 3): 19%* | Body Weight ([4]; 300 μg/kg/day amylin, Week 4): 12%* | Caloric Intake ([4]; 300 μg/kg/day amylin, Week 4): 19%* | effects on food intake and body weight across doses ([4]; 30, 100 and 300 μg/kg/day): dose-dependent | food intake versus vehicle treated counterparts ([5]; FIGS. 13E-13H): ate less | Body Weight ([5]; all treatment conditions): significantly reduced | percent protein ([5]; except in ad-lib fed then food restricted group): increases | percent body fat ([5]; except in chronically restricted animals): significant decreases | % Change in fat [5, 9]: −10.1 ± 0.5% | % Change in protein [5, 9]: 0.8 ± 0.1% | Estimated Mean Weight change from treatment [5, 9]: -21.8 ± 1.4 g | % Change in fat [5, 10]: −9.9 ± 0.9% | % Change in protein [5, 10]: 0.7 ± 0.1% | Estimated Mean Weight change from treatment [5, 10]: -23.1 ± 2.3 g | % Change in fat [5, 11]: −11.5 ± 0.6% | % Change in protein [5, 11]: 1.1 ± 0.1% | Estimated Mean Weight change from treatment [5, 11]: -18.2 ± 2.5 g | % Change in fat [5, 12]: −11.1 ± 1.0% | % Change in protein [5, 12]: 1.0 ± 0.1% | Estimated Mean Weight change from treatment [5, 12]: -17.1 ± 2.0 g | slowing body weight gain [6]: significant effect | effects on body composition ([6]; rodent NMR): favorable effects | percent body fat relative to pair-fed [7]: lower | percent protein [7]: remained relatively constant | weight gain compared to vehicle rats [7]: significant reduction | reduction in body weight relative to vehicle controls ([7]; amylin 300 μg/kg/day, osmotic pump): 12% | Fat (%) ([7]; amylin 300 μg/kg/day, s.c. 28-day osmotic pump, body composition by chemical analysis): 7.2 ± 1.5 % | Weight (g) ([7]; amylin 300 μg/kg/day, s.c. 28-day osmotic pump, end of study): 392.25* g | Moisture (%) [7, 13]: 67.57 ± 0.7 % | Protein (%) [7, 13]: 20.67 ± 0.74%
